Assay results from PubChem BioAssay AID2060909 (Molecular Pharmacology Branch, DTP, NCI, 2025).

System: 362531-283-R-J2-PDC complex spheroid viability
Assay: Anticancer human tumor 362531-283-R-J2-PDC patient-derived colon adenocarcinoma cell line growth inhibition [RAS]
Settings: for IC50: curve of first compound; for viability, T/C: stronger effect = lower value; active means viability on the fitted dose curve at most 10% of control; inactive means the rest
In short: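 Agents were tested in combination matrices in half-log decrements from a top concentration at or near clinical Cmax (10 microM if undetermined). Targets were multi-cell spheroids of tumour lines plus HUVEC and MSC stromal cells.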

[1] = second compound 0.0316 µM, first compound 0.0316 µM
[2] = second compound 0.0316 µM, first compound 0.1 µM
[3] = second compound 0.0316 µM, first compound 0.316 µM
[4] = second compound 0.0316 µM, first compound 1 µM
[5] = second compound 0.1 µM, first compound 0.0316 µM
[6] = second compound 0.1 µM, first compound 0.1 µM
[7] = second compound 0.1 µM, first compound 0.316 µM
[8] = second compound 0.1 µM, first compound 1 µM
[9] = second compound 0.316 µM, first compound 0.0316 µM
[10] = second compound 0.316 µM, first compound 0.1 µM
[11] = second compound 0.316 µM, first compound 0.316 µM
[12] = second compound 0.316 µM, first compound 1 µM
[13] = second compound 1 µM, first compound 0.0316 µM
[14] = second compound 1 µM, first compound 0.1 µM
[15] = second compound 1 µM, first compound 0.316 µM
[16] = second compound 1 µM, first compound 1 µM
[17] = second compound 3.16 µM, first compound 0.0316 µM
[18] = second compound 3.16 µM, first compound 0.1 µM
[19] = second compound 3.16 µM, first compound 0.316 µM
[20] = second compound 3.16 µM, first compound 1 µM
[21] = second compound 10 µM, first compound 0.0316 µM
[22] = second compound 10 µM, first compound 0.1 µM
[23] = second compound 10 µM, first compound 0.316 µM
[24] = second compound 10 µM, first compound 1 µM
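Further: spheroids exposed to the agents for 7 days before readout.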
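Wherever viability, T/C is given: luminescence viability as percent of DMSO vehicle control wells.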

CC1(O)CCCC1n1c(=O)c(C(F)F)cc2cnc(NC3CCN(S(C)(=O)=O)CC3)nc21 (stereo unspecified) + CCn1c(-c2cc(N3CCN(C)CC3)cnc2C(C)OC)c2c3cc(ccc31)-c1csc(n1)CC(NC(=O)C1CC1C)C(=O)N1CCCC(N1)C(=O)OCC(C)(C)C2
> 10 µM: IC50 (second compound 0.0949 µM)
5.44 µM: IC50 (second compound 0.000949 µM)
6.11 µM: IC50 (second compound 0.003 µM)
5.9 µM: IC50 (second compound 0.03 µM)
8.98 µM: IC50 (second compound 0.00949 µM)
active: viability, T/C (second compound 0.3 µM, first compound 10 µM) 7.05%
< 0.0316 µM: IC50 (second compound 0.3 µM)
inactive: viability, T/C (second compound 0.000949 µM, first compound 0.0316 µM) 97.7% | viability, T/C (second compound 0.000949 µM, first compound 0.1 µM) 97.5% | viability, T/C (second compound 0.000949 µM, first compound 0.316 µM) 98% | viability, T/C (second compound 0.000949 µM, first compound 1 µM) 79.5% | viability, T/C (second compound 0.000949 µM, first compound 3.16 µM) 57.6% | viability, T/C (second compound 0.000949 µM, first compound 10 µM) 42.2% | viability, T/C (second compound 0.003 µM, first compound 0.0316 µM) 109% | viability, T/C (second compound 0.003 µM, first compound 0.1 µM) 112% | viability, T/C (second compound 0.003 µM, first compound 0.316 µM) 97.4% | viability, T/C (second compound 0.003 µM, first compound 1 µM) 76.9% | viability, T/C (second compound 0.003 µM, first compound 3.16 µM) 61.5% | viability, T/C (second compound 0.003 µM, first compound 10 µM) 42.4% | viability, T/C (second compound 0.00949 µM, first compound 0.0316 µM) 94.6% | viability, T/C (second compound 0.00949 µM, first compound 0.1 µM) 111% | viability, T/C (second compound 0.00949 µM, first compound 0.316 µM) 108% | viability, T/C (second compound 0.00949 µM, first compound 1 µM) 83.5% | viability, T/C (second compound 0.00949 µM, first compound 3.16 µM) 65.5% | viability, T/C (second compound 0.00949 µM, first compound 10 µM) 47.5% | viability, T/C (second compound 0.03 µM, first compound 0.0316 µM) 99.2% | viability, T/C (second compound 0.03 µM, first compound 0.1 µM) 99.1% | viability, T/C (second compound 0.03 µM, first compound 0.316 µM) 89.4% | viability, T/C (second compound 0.03 µM, first compound 1 µM) 87% | viability, T/C (second compound 0.03 µM, first compound 3.16 µM) 69.2% | viability, T/C (second compound 0.03 µM, first compound 10 µM) 33.9% | viability, T/C (second compound 0.0949 µM, first compound 0.0316 µM) 80.7% | viability, T/C (second compound 0.0949 µM, first compound 0.1 µM) 79.2% | viability, T/C (second compound 0.0949 µM, first compound 0.316 µM) 78.6% | viability, T/C (second compound 0.0949 µM, first compound 1 µM) 68.2% | viability, T/C (second compound 0.0949 µM, first compound 3.16 µM) 56.4% | viability, T/C (second compound 0.0949 µM, first compound 10 µM) 61% | viability, T/C (second compound 0.3 µM, first compound 0.0316 µM) 37.4% | viability, T/C (second compound 0.3 µM, first compound 0.1 µM) 50.2% | viability, T/C (second compound 0.3 µM, first compound 0.316 µM) 37.7% | viability, T/C (second compound 0.3 µM, first compound 1 µM) 55.8% | viability, T/C (second compound 0.3 µM, first compound 3.16 µM) 45.9%

O=C(c1ccc(F)c(F)c1Nc1ccc(I)cc1F)N1CC(O)([C@@H]2CCCCN2)C1 + C#Cc1c(F)ccc2cc(O)cc(-c3ncc4c(N5CC6CCC(C5)N6)nc(OCC56CCCN5CC(F)C6)nc4c3F)c12
0.35 µM: IC50 (second compound 0.1 µM) | IC50 (second compound 0.316 µM)
active: viability, T/C [4] 8.48% | viability, T/C [8] 4.9% | viability, T/C [12] 3.76% | viability, T/C [16] 3.27% | viability, T/C [19] 9.05% | viability, T/C [20] 1.7% | viability, T/C [23] 6.01% | viability, T/C [24] 1.71%
0.181 µM: IC50 (second compound 1 µM)
inactive: viability, T/C (second compound 0.0316 µM, first compound 0.00316 µM) 97.9% | viability, T/C (second compound 0.0316 µM, first compound 0.01 µM) 101% | viability, T/C [1] 101% | viability, T/C [2] 88.1% | viability, T/C [3] 62.9% | viability, T/C (second compound 0.1 µM, first compound 0.00316 µM) 97.6% | viability, T/C (second compound 0.1 µM, first compound 0.01 µM) 98.4% | viability, T/C [5] 95.5% | viability, T/C [6] 72.1% | viability, T/C [7] 57.6% | viability, T/C (second compound 0.316 µM, first compound 0.00316 µM) 90.1% | viability, T/C (second compound 0.316 µM, first compound 0.01 µM) 88.1% | viability, T/C [9] 78.1% | viability, T/C [10] 66.3% | viability, T/C [11] 61.3% | viability, T/C (second compound 1 µM, first compound 0.00316 µM) 82.6% | viability, T/C (second compound 1 µM, first compound 0.01 µM) 78.6% | viability, T/C [13] 78.2% | viability, T/C [14] 79.1% | viability, T/C [15] 22.9% | viability, T/C (second compound 3.16 µM, first compound 0.00316 µM) 65.4% | viability, T/C (second compound 3.16 µM, first compound 0.01 µM) 60.5% | viability, T/C [17] 56.5% | viability, T/C [18] 10.6% | viability, T/C (second compound 10 µM, first compound 0.00316 µM) 28% | viability, T/C (second compound 10 µM, first compound 0.01 µM) 31.1% | viability, T/C [21] 13.9% | viability, T/C [22] 9.85%
0.0372 µM: IC50 (second compound 3.16 µM)
0.413 µM: IC50 (second compound 0.0316 µM)
< 0.00316 µM: IC50 (second compound 10 µM)

CC1(O)CCCC1n1c(=O)c(C(F)F)cc2cnc(NC3CCN(S(C)(=O)=O)CC3)nc21 (stereo unspecified) + C#Cc1c(F)ccc2cc(O)cc(-c3ncc4c(N5CC6CCC(C5)N6)nc(OCC56CCCN5CC(F)C6)nc4c3F)c12
> 10 µM: IC50 (second compound 0.0316 µM) | IC50 (second compound 0.1 µM)
active: viability, T/C (second compound 3.16 µM, first compound 10 µM) 7.49% | viability, T/C (second compound 10 µM, first compound 10 µM) 5.91%
1.29 µM: IC50 (second compound 3.16 µM)
inactive: viability, T/C [1] 92.6% | viability, T/C [2] 91.8% | viability, T/C [3] 71.8% | viability, T/C [4] 71% | viability, T/C (second compound 0.0316 µM, first compound 3.16 µM) 62.3% | viability, T/C (second compound 0.0316 µM, first compound 10 µM) 81% | viability, T/C [5] 95.4% | viability, T/C [6] 92.5% | viability, T/C [7] 80.9% | viability, T/C [8] 73.4% | viability, T/C (second compound 0.1 µM, first compound 3.16 µM) 68.7% | viability, T/C (second compound 0.1 µM, first compound 10 µM) 73.2% | viability, T/C [9] 82.7% | viability, T/C [10] 89.1% | viability, T/C [11] 74.6% | viability, T/C [12] 66.4% | viability, T/C (second compound 0.316 µM, first compound 3.16 µM) 49.8% | viability, T/C (second compound 0.316 µM, first compound 10 µM) 37% | viability, T/C [13] 82.8% | viability, T/C [14] 80.5% | viability, T/C [15] 67.7% | viability, T/C [16] 69.3% | viability, T/C (second compound 1 µM, first compound 3.16 µM) 53.9% | viability, T/C (second compound 1 µM, first compound 10 µM) 20.4% | viability, T/C [17] 59.2% | viability, T/C [18] 59.8% | viability, T/C [19] 61.4% | viability, T/C [20] 54.7% | viability, T/C (second compound 3.16 µM, first compound 3.16 µM) 32% | viability, T/C [21] 45.1% | viability, T/C [22] 50.7% | viability, T/C [23] 29.9% | viability, T/C [24] 29.7% | viability, T/C (second compound 10 µM, first compound 3.16 µM) 24.7%
3.43 µM: IC50 (second compound 1 µM)
3.08 µM: IC50 (second compound 0.316 µM)
< 0.0316 µM: IC50 (second compound 10 µM)
